# From patent US10947215B2, “Heteroaryl compounds and their use as therapeutic drugs” (Dong-A Socio Holdings Co., Ltd., priority 2015, dated 2021)
# Tested on: Ba/F3-CDM cells (Ba/F3 transfected with CD8-MerTK)
# Assay: In cell MER kinase assay, Ba/F3-CDM cell proliferation without IL-3 (Celltiter-Glo, GI50)
# Assay type: cell-based, murine
# Details: 48 hours, read-out: Cell growth inhibition (GI50)
# Description: In Cell MER Kinase Assay Using BaF3 Cellular System
# To establish an in cell kinase assay for MerTK kinase, the IL-3 dependent Ba/F3 cells of murine lymphoid origin was transfected with CD8-MerTK. […] For a routine cellular assay, Ba/F3-CDM cells were seeded at 2,000 cells per well in 384-well cell culture plate containing DMEM/10% FBS culture media and incubated for 24 hours before addition of compounds pre-diluted in culture media. Following compound treatment, cells were further incubated for 48 hours and the proliferation was measured. To discriminate a Ba/F3 growth inhibition by a specific inhibition of MerTK kinase following compound treatment vs growth inhibition due to a non-specific unintended cytotoxicity of compounds, we routinely carried out control sets of Ba/F3 cells in parallel that grown in IL3-supplemented growth media. In the presence of IL-3, the proliferation of Ba/F3 is no longer dependent on the MerTK activity. Cell growth and proliferation was measured with Celltiter-Glo™ system (Promega, USA) according to the manufacturer's instruction. The half-maximal growth inhibitory concentration (GI50) value was calculated with Prism6.0 software (GraphPad, USA).
row,SMILES,GI50 [nM]
1,"CCC1CN(Cc2ccc(-c3ccc(CO[C@H]4CCC[C@@H]4NC(=O)c4cc(-c5cnn(C)c5)cnc4N)cc3)cc2)CCN1C (stereo partly drawn) [Example 188, 2-amino-N-((1S,2S)-2-((4′-((3-ethyl-4-methylpiperazin-1-yl)-methyl)-[1,1′-biphenyl]-4-yl)methoxy)cyclopentyl)-5-(1-methyl-1H-pyrazol-4-yl)-nicotinamide]",< 100
2,"CN1CCN(Cc2ccc(-c3ccc(CO[C@H]4CCC[C@@H]4NC(=O)c4cc(-c5ccc(O)cc5)cnc4N)cc3)cc2)CC1 [Example 372, 2-amino-5-(4-hydroxyphenyl)-N-((1S,2S)-2-((4′-((4-methyl-piperazin-1-yl)methyl)-[1,1′-biphenyl]-4-yl)methoxy)cyclopentyl)nicotinamide]",< 100
3,"CN1CCN(Cc2ccc(-c3ccc(CO[C@H]4CCC[C@@H]4NC(=O)c4cc(-c5ccc(F)nc5)cnc4N)cc3)cc2)CC1 [Example 386, 6-amino-6′-fluoro-N-((1S,2S)-2-((4′-((4-methylpiperazin-1-yl)methyl)-[1,1′-biphenyl]-4-yl)methoxy)cyclopentyl)-[3,3′-bipyridine]-5-carboxamide]",< 100
4,"Cn1cc(-c2cnc(N)c(C(=O)N[C@H]3CCC[C@@H]3OCc3ccc(-c4ccc(CN5CCC(O)CC5)cc4)cc3)c2)cn1 [Example 180, 2-amino-N-((1S,2S)-2-((4′-((4-hydroxypiperidin-1-yl)methyl)-[1,1′-biphenyl]-4-yl)methoxy)cyclopentyl)-5-(1-methyl-1H-pyrazol-4-yl)nicotinamide]",> 1000
5,"CN1CCN(Cc2ccc(-c3ccc(CO[C@H]4CCC[C@@H]4NC(=O)c4cc(-c5ccccc5)cnc4N)cc3)cc2)CC1 [Example 371, 2-amino-N-((1S,2S)-2-((4′-((4-methylpiperazin-1-yl)methyl)-[1,1′-biphenyl]-4-yl)methoxy)cyclopentyl)-5-phenyl nicotinamide]",< 100
6,"Cn1cc(-c2cnc(N)c(C(=O)N[C@H]3CCC[C@@H]3OCc3ccc(-c4ccc(CC5CCN(CC(N)=O)CC5)cc4)cc3)c2)cn1 [Example 242, 2-amino-N-((1S,2S)-2-((4′-((1-(2-amino-2-oxoethyl)piperidin-4-yl)methyl)-[1,1′-biphenyl]-4-yl)methoxy)cyclopentyl)-5-(1-methyl-1H-pyrazol-4-yl)-nicotinamide]",< 100
7,"CN1CCN(c2ccc(-c3ccc(CO[C@H]4CCC[C@@H]4NC(=O)c4cc(-c5cnn(C)c5)cnc4N)cc3)cc2)CC1 [Example 146, 2-amino-5-(1-methyl-1H-pyrazol-4-yl)-N-((1S,2S)-2-((4′-(4-methylpiperazin-1-yl)-[1,1′-biphenyl]-4-yl)methoxy)cyclopentyl)nicotinamide]",< 100
8,"CCc1cc(CO[C@H]2CCC[C@@H]2NC(=O)c2cc(-c3ccc(C(C)(C)N4CCN(CCO)CC4)cc3)cnc2N)ccc1C [Example 360, 2-amino-N-((1S,2S)-2-((3-ethyl-4-methylbenzyl)oxy)cyclopentyl)-5-(4-(2-(4-(2-hydroxyethyl)piperazin-1-yl)propan-2-yl)phenyl)nicotinamide]",> 1000
9,"CC1CCN(Cc2ccc(-c3cnc(N)c(C(=O)N[C@H]4CCC[C@@H]4OCc4ccc(-c5ccc(CN6CCN(C)CC6)cc5)cc4)c3)cc2)CC1 [Example 378, 2-amino-N-((1S,2S)-2-((4′-((4-methylpiperazin-1-yl)methyl)-[1,1′-biphenyl]-4-yl)methoxy)cyclopentyl)-5-(4-((4-methylpiperidin-1-yl)methyl)phenyl)-nicotinamide]",< 100
10,"CCc1cc(CO[C@H]2CNC[C@@H]2NC(=O)c2cc(-c3ccc(C(N)=O)cc3)cnc2N)ccc1C [Example 391, 2-amino-5-(4-carbamoylphenyl)-N-((3S,4S)-4-((3-ethyl-4-methylbenzyl)oxy)pyrrolidin-3-yl)nicotinamide]",> 1000
11,"CN1CCN(Cc2ccc(-c3ccc(CO[C@H]4COC[C@@H]4NC(=O)c4cc(-c5cnn(C)c5)cnc4N)cc3)cc2)CC1 [Example 448, 2-amino-5-(1-methyl-1H-pyrazol-4-yl)-N-((3S,4R)-4-((4′-((4-methylpiperazin-1-yl)methyl)-[1,1′-biphenyl]-4-yl)methoxy)tetrahydrofuran-3-yl)-nicotinamide]",< 100
12,"CC(c1ccc(-c2ccc(CO[C@H]3CNC[C@@H]3NC(=O)c3cc(-c4cnn(C)c4)cnc3N)cc2)cc1)N1CCN(CCO)CC1 (stereo partly drawn) [Example 442, 2-amino-N-((3S,4S)-4-((4′-(1-(4-(2-hydroxyethyl)piperazin-1-yl)ethyl)-[1,1′-biphenyl]-4-yl)methoxy)pyrrolidin-3-yl)-5-(1-methyl-1H-pyrazol-4-yl)nicotinamide]",> 1000
13,"Cn1cc(-c2cnc(N)c(C(=O)N[C@H]3CCC[C@@H]3OCc3ccc(-c4ccc(CN5CCN(C6CC6)CC5)cc4)cc3)c2)cn1 [Example 184, 2-amino-N-((1S,2S)-2-((4′-((4-cyclopropylpiperazin-1-yl)methyl)-[1,1′-biphenyl]-4-yl)methoxy)cyclopentyl)-5-(1-methyl-1H-pyrazol-4-yl)nicotinamide]",< 100
14,"CN1CCN(Cc2ccc(-c3ccc(CO[C@H]4CCC[C@@H]4NC(=O)c4cc(-c5cccnc5)cnc4N)cc3)cc2)CC1 [Example 375, 6-amino-N-((1S,2S)-2-((4′-((4-methylpiperazin-1-yl)methyl)-[1,1′-biphenyl]-4-yl)methoxy)cyclopentyl)-[3,3′-bipyridine]-5-carboxamide]",< 100
15,"Cc1cc(-c2ccc(CO[C@H]3CCC[C@@H]3NC(=O)c3cc(-c4cnn(C)c4)cnc3N)cc2)ccc1CN1CCN(C)CC1 [Example 198, 2-amino-5-(1-methyl-1H-pyrazol-4-yl)-N-((1S,2S)-2-((3′-methyl-4′-((4-methylpiperazin-1-yl)methyl)-[1,1′-biphenyl]-4-yl)methoxy)cyclopentyl)-nicotinamide]",< 100
16,"CN1CCN(Cc2ccc(-c3ccc(CO[C@H]4CCC[C@@H]4NC(=O)c4cc(-c5cnn(C(F)(F)C(F)F)c5)cnc4N)cc3)cc2)CC1 [Example 387, 2-amino-N-((1S,2S)-2-((4′-((4-methylpiperazin-1-yl)methyl)-[1,1′-biphenyl]-4-yl)methoxy)cyclopentyl)-5-(1-(1,1,2,2-tetrafluoroethyl)-1H-pyrazol-4-yl)-nicotinamide]",< 100
17,"Cn1cc(-c2cnc(N)c(C(=O)N[C@H]3CCC[C@@H]3OCc3ccc(-c4ccc(CN5CCN(CCO)CC5)cc4)cc3)c2)cn1 [Example 181, 2-amino-N-((1S,2S)-2-((4′-((4-(2-hydroxyethyl)piperazin-1-yl)-methyl)-[1,1′-biphenyl]-4-yl)methoxy)cyclopentyl)-5-(1-methyl-1H-pyrazol-4-yl)-nicotinamide]",< 100
18,"CN1CCN(Cc2ccc(-c3ccc(CO[C@H]4CCC[C@@H]4NC(=O)c4cc(-c5ccc(N6CCN(C)CC6)cc5)cnc4N)cc3)cc2)CC1 [Example 367, 2-amino-N-((1S,2S)-2-((4′-((4-methylpiperazin-1-yl)methyl)-[1,1′-biphenyl]-4-yl)methoxy)cyclopentyl)-5-(4-(4-methylpiperazin-1-yl)phenyl)-nicotinamide]",< 100
19,"CN(C)C1CCN(Cc2ccc(-c3ccc(CO[C@H]4CCC[C@@H]4NC(=O)c4cc(-c5cnn(C)c5)cnc4N)cc3)cc2)C1 (stereo partly drawn) [Example 193, 2-amino-N-((1S,2S)-2-((4′-((3-(dimethylamino)pyrrolidin-1-yl)methyl)-[1,1′-biphenyl]-4-yl)methoxy)cyclopentyl)-5-(1-methyl-1H-pyrazol-4-yl)nicotinamide]",< 100
20,CCc1cc(CO[C@H]2CCC[C@@H]2NC(=O)c2cc(-c3cnn(C)c3)cnc2N)ccc1C [Example 21],> 1000
21,"CCc1cc(CO[C@H]2CNC[C@@H]2NC(=O)c2cc(-c3cnn(C4CCNCC4)c3)cnc2N)ccc1C [Example 412, 2-amino-N-((3S,4S)-4-((3-ethyl-4-methylbenzyl)oxy)pyrrolidin-3-yl)-5-(1-(piperidin-4-yl)-1H-pyrazol-4-yl)nicotinamide]",> 1000
22,"CN1CCN(c2ccc(-c3ccc(CO[C@H]4CCC[C@@H]4NC(=O)c4cc(-c5cnn(C)c5)cnc4N)cc3)cn2)CC1 [Example 148, 2-amino-5-(1-methyl-1H-pyrazol-4-yl)-N-((1S,2S)-2-((4-(6-(4-methylpiperazin-1-yl)pyridin-3-yl)benzyl)oxy)cyclopentyl)nicotinamide]",> 1000
23,"Cc1cccc(-c2cnc(N)c(C(=O)N[C@H]3CCC[C@@H]3OCc3ccc(-c4ccc(CN5CCN(C)CC5)cc4)cc3)c2)c1 [Example 370, 2-amino-N-((1S,2S)-2-((4′-((4-methylpiperazin-1-yl)methyl)-[1,1′-biphenyl]-4-yl)methoxy)cyclopentyl)-5-(m-tolyl)nicotinamide]",< 100
24,"CN1CCN(C(C)(C)c2ccc(-c3ccc(CO[C@H]4COC[C@@H]4NC(=O)c4cc(-c5cnn(C)c5)cnc4N)cc3)cc2)CC1 [Example 450, 2-amino-5-(1-methyl-1H-pyrazol-4-yl)-N-((3S,4R)-4-((4′-(2-(4-methylpiperazin-1-yl)propan-2-yl)-[1,1′-biphenyl]-4-yl)methoxy)tetrahydrofuran-3-yl)nicotinamide]",< 100
25,"CC(c1ccc(-c2ccc(CO[C@H]3CCC[C@@H]3NC(=O)c3cc(-c4cnn(C)c4)cnc3N)cc2)cc1)N1C[C@@H](C)N(CCO)[C@@H](C)C1 (stereo partly drawn) [Example 211, 2-amino-N-((1S,2S)-2-((4′-(1-((3S,5R)-4-(2-hydroxyethyl)-3,5-dimethylpiperazin-1-yl)ethyl)-[1,1′-biphenyl]-4-yl)methoxy)cyclopentyl)-5-(1-methyl-1H-pyrazol-4-yl)nicotinamide]",< 100
